Measured values taken from patent publication US8426365B2, “Method of treating or preventing tissue deterioration, injury or damage due to congestive heart failure” (Regenerx Biopharmaceuticals, Inc., priority 2005, dated 2013).

How the values were obtained:
normal (BL10) mice [1] = test: VersaMax animal activity monitoring, normal (BL10) mice; format: in vivo; details: BL10 treated
Method: (§1) Four groups of mice were treated with thymosin beta 4. Group 1 was normal mice (BL10) that were given placebo (untreated). Group 2 was normal mice that were treated with thymosin beta 4. Group 3 was dystrophin deficient (mdx) mice treated with placebo and Group 4 was mdx mice treated with thymosin beta 4. Mice were treated with 150 micrograms of thymosin beta 4 in 300 microliters of buffer given intraperitoneally twice a week and placebo mice were given 300 microliters of buffer only. The mice exercised on a treadmill at a speed of 12 meters/minute for 30 minutes twice a week. Functional, behavioral and echocardiographic data were obtained at baseline and after 2 months, 4 months and 6 months of treatment.
(§2) Behavioral data was collected using the VersaMax™ animal activity monitoring system. Mice were placed in a monitored box and activity was quantified by different sensors. Data includes horizontal activity, vertical activity and total distance traveled and many other activity parameters were measured. Multiple measurements were made over a 3 day period.

normal (BL10) mice [2] = test: Grip strength meter, normal (BL10) mice; format: in vivo; details: BL10 treated
Method: as §1
(§3) Functional data were non-invasive measurements of skeletal muscle function. The muscle strength of the forelimbs and hindlimbs was assessed using a grip strength meter. The animals were allowed to hold onto the meter platform and then were slowly pulled until they lost their grip. The amount of force needed to free the grip was recorded. Multiple measurements were taken for each mouse at each time point. The same protocol was followed for hindlimb muscle strength. Another functional assessment was the Rotarod test. Here, mice were placed on a rotating bar and kept their balance and position as the bar rotated with increasing speed (10 RPM for 1 minute and then increased 0.2 RPM over the next three minutes). The time until the mouse falls was measured. This test was also repeated multiple times.

normal (BL10) mice [3] = test: Rotarod test, normal (BL10) mice; format: in vivo; details: BL10 treated, time until the mouse falls
Method: as §1
as §3, with “Here, mice were placed on a rotating bar and kept their balance and position as the bar rotated with increasing speed (10 RPM for 1 minute and then increased 0.2 RPM over the next three minutes).” left out, “This test was also repeated multiple times.” left out

[4] = test system: dystrophin deficient (mdx) mice; test: Grip strength meter, dystrophin deficient (mdx) mice; format: in vivo; details: Mdx treated
Method: as §1, §3

[5] = test system: mouse MI-induced heart failure model; test: Mouse myocardial infarction (MI) heart failure model; format: in vivo, C57 black mice; details: 150 μg/mouse i.p. immediately after MI, then every three days for 4 weeks
Method: The procedures used in this study are exactly same as that reported in Nature (432:466-472, 2004). Briefly, C57 black mice, 14 weeks old, were used in this study. Mice were given thymosin β4 (Bachem, Lot #FTHYB40501B) (150 μg/mouse) immediately after myocardial infarction and then every three days for 4 weeks by i.p. injection. The parameters of this study included cardiac morphology and function by echocardiography (echo), invasive cardiac function measurement using Millar catheter, survival rate, and histochemical analysis.

[6] = test system: dystrophin deficient (mdx) mice; test: Rotarod test, dystrophin deficient (mdx) mice; format: in vivo; details: Mdx treated, time until the mouse falls
Method: as §1
as §3, with “Here, mice were placed on a rotating bar and kept their balance and position as the bar rotated with increasing speed (10 RPM for 1 minute and then increased 0.2 RPM over the next three minutes).” left out, “This test was also repeated multiple times.” left out

[7] = test system: dystrophin deficient (mdx) mice; test: VersaMax animal activity monitoring, dystrophin deficient (mdx) mice; format: in vivo; details: Mdx treated
Method: as §1, §2

[8] = test system: heart attack in the mouse model; details: administered immediately following a heart attack; Nature 2004; cited from earlier work
[9] = 2 month, 150 micrograms i.p. twice a week

## thymosin beta 4 (SDKPDMAEIEKFDKSKLKKTETQEKNPLPSKETIEQEKQAGES; Thymosin beta-4; UniProt P62328 2-44, looked up) [43 amino acid, 4.9 kDa ubiquitous polypeptide originally isolated from the thymus]
Normal (BL10) mice [1]; [9]
  Avg horizontal activity: 1287
  Avg movement time: 27 s
  Avg total distance: 239 cm
  Avg vertical activity: 13.1
Normal (BL10) mice [1]; Baseline
  Avg horizontal activity: 1761
  Avg movement time: 41 s
  Avg total distance: 375 cm
  Avg vertical activity: 28
Normal (BL10) mice [2]; [9]
  Avg max forelimb strength: 5.73 KGF/kg
  Avg max hindlimb strength: 9.18 KGF/kg
Normal (BL10) mice [2]; Baseline
  Avg max forelimb strength: 5.57 KGF/kg
  Avg max hindlimb strength: 7.35 KGF/kg
Normal (BL10) mice [3]; [9]
  Rotorod: 191
Normal (BL10) mice [3]; Baseline
  Rotorod: 214
[4]; [9]
  Avg max forelimb strength: 3.78 KGF/kg
  Avg max hindlimb strength: 7.29 KGF/kg
[4]; Baseline
  Avg max forelimb strength: 4.46 KGF/kg
  Avg max hindlimb strength: 6.29 KGF/kg
[5]
  left ventricular end diastolic pressure (LVEDP): significantly reduced
  left ventricular end diastolic volume: significantly attenuated
  left ventricular end systolic volume: significantly attenuated
  left ventricular systolic pressure (LVSP): showed a trend in improvement (i.e., a reduction)
  rate of change (velocity) in left ventricular pressure-rise with time (dP/dt): significantly improved
  rate of change (velocity) in left ventricular relaxation: showed a trend in affecting (improving)
[5]; listed as TB4
  pulmonary edema (lung weight): significantly attenuated
  thickening of left ventricle / heart muscle (heart weight): significantly attenuated
[6]; [9]
  Rotorod: 147
[6]; Baseline
  Rotorod: 211
[7]; [9]
  Avg horizontal activity: 961
  Avg movement time: 18.9 s
  Avg total distance: 167 cm
  Avg vertical activity: 8.2
[7]; Baseline
  Avg horizontal activity: 1071
  Avg movement time: 25 s
  Avg total distance: 209 cm
  Avg vertical activity: 12
[8]
  ejection fraction: able to improve
  fractional shortening: able to improve
